Source: ChEMBL document CHEMBL4402532, “Heme Oxygenase-2 (HO-2) as a therapeutic target: Activators and inhibitors” (Eur J Med Chem, 2019)

Assays:
Assay type in all cases: microsomes
[1] = molecular target: T1, Heme oxygenase 2 (Rattus norvegicus) (UniProt P23711); test: Activation of rat brain microsome HO-2 […] preincubated for 10 mins followed by NADPH addition and measured after 15 mins by gas chromatography relative to control; design: concentration or dose not given beside the values
T1 sequence (whole entry): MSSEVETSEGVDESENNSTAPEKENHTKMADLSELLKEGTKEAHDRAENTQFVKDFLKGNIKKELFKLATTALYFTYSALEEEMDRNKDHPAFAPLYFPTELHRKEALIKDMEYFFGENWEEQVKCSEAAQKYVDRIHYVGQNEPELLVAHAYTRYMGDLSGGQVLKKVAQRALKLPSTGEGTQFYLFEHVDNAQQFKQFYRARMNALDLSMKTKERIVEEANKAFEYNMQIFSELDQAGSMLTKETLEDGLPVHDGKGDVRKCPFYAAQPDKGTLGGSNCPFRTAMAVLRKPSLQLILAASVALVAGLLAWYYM

[2] = molecular target: T2, Heme oxygenase 1 (Rattus norvegicus) (UniProt P06762); test: Activation of rat spleen microsome HO-1 preincubated for 10 mins followed by NADPH addition and measured after 15 mins by gas chromatography relative to control; design: concentration or dose not given beside the values
T2 sequence (whole entry): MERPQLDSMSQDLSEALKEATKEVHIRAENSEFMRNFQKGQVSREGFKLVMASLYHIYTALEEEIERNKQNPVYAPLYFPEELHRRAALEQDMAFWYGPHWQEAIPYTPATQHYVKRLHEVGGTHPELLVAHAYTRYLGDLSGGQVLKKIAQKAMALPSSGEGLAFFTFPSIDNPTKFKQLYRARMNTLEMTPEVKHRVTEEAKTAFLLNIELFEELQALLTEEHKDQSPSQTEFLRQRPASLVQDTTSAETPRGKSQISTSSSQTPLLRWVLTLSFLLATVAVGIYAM

Heme oxygenase 2 [3] = molecular target: T3, Heme oxygenase 2 (Rattus norvegicus, UniProt P23711); test: Inhibition of Sprague-Dawley rat brain microsome HO-2 preincubated for 10 mins followed by beta-NADPH addition and measured after 15 mins by gas chromatography
T3 sequence (P23711 whole entry): T1 sequence (whole entry)

Heme oxygenase 1 [4] = molecular target: T4, Heme oxygenase 1 (Rattus norvegicus, UniProt P06762); test: Inhibition of Sprague-Dawley rat spleen microsome HO-1 preincubated for 10 mins followed by beta-NADPH addition and measured after 15 mins by gas chromatography
T4 sequence (P06762 whole entry): T2 sequence (whole entry)

Heme oxygenase 2 [5] = molecular target: T3, Heme oxygenase 2; test: Inhibition of rat brain microsome HO-2 preincubated for 10 mins followed by beta-NADPH addition and measured after 15 mins by gas chromatography
Heme oxygenase 1 [6] = molecular target: T4, Heme oxygenase 1; test: Inhibition of rat spleen microsome HO-1 preincubated for 10 mins followed by beta-NADPH addition and measured after 15 mins by gas chromatography

**Q.** Which Activity [1] does the source give for `O=C1CCCc2ccccc21` here?
**A.** 96%

**Q.** And the Activity [2]?
**A.** 98%

**Q.** Which results are given for `COc1ccc(NC2=C(N3CCCCC3)C(=O)c3ccccc3C2=O)cc1`?
**A.** Activity [1]: 249%; Activity [2]: 82%

**Q.** With `O=C(Cn1ccnc1)c1cccc2ccccc12` as the compound, how does the IC50 (Heme oxygenase 2 [3]) read?
**A.** 10 µM

**Q.** And the IC50 (Heme oxygenase 1 [4])?
**A.** 2.24 µM

**Q.** For `Cc1ccc(Cn2c(CC3CCCC3)nc3ccccc32)cc1`, which IC50 (Heme oxygenase 2 [3]) is on record?
**A.** 8.6 µM

**Q.** What about the IC50 (Heme oxygenase 1 [4]) of the same compound?
**A.** 18.1 µM

**Q.** How did the IC50 (Heme oxygenase 2 [3]) turn out when `OC(Cn1ccnc1)CC12CC3CC(CC(C3)C1)C2` (stereo unspecified) was run?
**A.** 6.5 µM

**Q.** What about the IC50 (Heme oxygenase 1 [4]) of the same compound?
**A.** 2 µM

**Q.** With `c1ccc(CSCCn2ccnc2)cc1` as the compound, how does the IC50 (Heme oxygenase 2 [3]) read?
**A.** 10 µM

**Q.** Which results are given for `O[C@H](Cn1ccnc1)c1ccc(CCc2ccccc2)cc1`?
**A.** IC50 (Heme oxygenase 2 [3]): 8 µM; IC50 (Heme oxygenase 1 [4]): 0.225 µM

**Q.** `Cc1ccc(S(=O)(=O)C[C@@H]2CO[C@@](CCc3ccc(Cl)cc3)(Cn3ccnc3)O2)cc1` was tested. Which IC50 (Heme oxygenase 2 [3]) did it give?
**A.** 3 µM

**Q.** What about the IC50 (Heme oxygenase 1 [4]) of the same compound?
**A.** 6 µM

**Q.** With `c1ccc(CCCCCCn2ccnc2)cc1` as the compound, how does the IC50 (Heme oxygenase 2 [3]) read?
**A.** 20 µM

**Q.** What about the IC50 (Heme oxygenase 1 [4]) of the same compound?
**A.** 2.8 µM

**Q.** How did the IC50 (Heme oxygenase 2 [3]) turn out when `c1ccc(Cn2c(CC3CC4CCC3C4)nc3ccccc32)cc1` (stereo unspecified) was run?
**A.** 6.3 µM

**Q.** And the IC50 (Heme oxygenase 1 [4])?
**A.** > 100 µM

**Q.** `O=C(Cn1ccnc1)c1ccc(Cl)c(Cl)c1Cl` was tested. Which IC50 (Heme oxygenase 2 [3]) did it give?
**A.** 6 µM

**Q.** What about the IC50 (Heme oxygenase 1 [4]) of the same compound?
**A.** 2.1 µM

**Q.** Which results are given for `c1ccc(CCCCn2ccnc2)cc1`?
**A.** IC50 (Heme oxygenase 2 [3]): 6.7 µM; IC50 (Heme oxygenase 1 [4]): 0.25 µM

**Q.** For `Fc1ccc(CO[C@@H](CCc2ccc(Cl)cc2)Cn2ccnc2)cc1`, which IC50 (Heme oxygenase 2 [3]) is on record?
**A.** 1 µM

**Q.** And the IC50 (Heme oxygenase 1 [4])?
**A.** 0.9 µM

**Q.** Which results are given for `CC(C)N1CCN(c2ccc(OCC3COC(Cn4cncn4)(c4ccc(Cl)cc4Cl)O3)cc2)CC1` (stereo unspecified) [TERCONAZOLE]?
**A.** IC50 (Heme oxygenase 2 [5]): 5 µM; IC50 (Heme oxygenase 1 [6]): 0.41 µM

**Q.** What does the source list for `O=C(Cn1ccnc1)c1ccc(C2CCCCC2)cc1`?
**A.** IC50 (Heme oxygenase 2 [3]): 6 µM; IC50 (Heme oxygenase 1 [4]): 5 µM

**Q.** What does the source list for `O=C1C=CC(=O)c2ccccc21`?
**A.** Activity [1]: 503%; Activity [2]: 71%

**Q.** What does the source list for `COc1ccc(CC(O)CCn2ccnc2)cc1` (stereo unspecified)?
**A.** IC50 (Heme oxygenase 2 [3]): 6 µM; IC50 (Heme oxygenase 1 [4]): 0.7 µM

**Q.** Which IC50 (Heme oxygenase 2 [3]) does the source give for `Brc1ccc(Cn2c(CC3CCCC3)nc3ccccc32)cc1` here?
**A.** 8.4 µM

**Q.** What about the IC50 (Heme oxygenase 1 [4]) of the same compound?
**A.** 75.6 µM

**Q.** What does the source list for `CC(C)(C)N1COc2ccc3c4c(oc3c2C1)C(=O)c1ccccc1C4=O`?
**A.** Activity [1]: 345%; Activity [2]: 85%

**Q.** Which results are given for `O=C(Cc1ccc(Br)cc1)Cn1ccnn1`?
**A.** IC50 (Heme oxygenase 2 [3]): 3 µM; IC50 (Heme oxygenase 1 [4]): 0.39 µM

**Q.** Which results are given for `O=C1C(O)=C(Cl)C(=O)c2ccccc21`?
**A.** Activity [1]: 108%; Activity [2]: 106%

**Q.** For `Cc1oc2c(c1C(=O)N1CCCC1)C(=O)c1ccccc1C2=O`, which Activity [1] is on record?
**A.** 602%

**Q.** What about the Activity [2] of the same compound?
**A.** 91%

**Q.** `O=C(Cn1cncn1)c1ccc(Cc2ccccc2)cc1` was tested. Which IC50 (Heme oxygenase 2 [3]) did it give?
**A.** 7 µM

**Q.** What about the IC50 (Heme oxygenase 1 [4]) of the same compound?
**A.** 2.7 µM

**Q.** `O=C(Cn1ccnc1)c1ccc(Cl)c(Cl)c1` was tested. Which IC50 (Heme oxygenase 1 [4]) did it give?
**A.** 1.24 µM
